Measurements reported in ChEMBL document CHEMBL1201862, “PubChem BioAssay data set” (2004).
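Step 1: Grow cells in 96-well plates. Step 2: Expose to compound for 48 hours at 5 concentrations. Step 3: Interpolate endpoints linearly; if unreached, use highest concentration. The concentration for 50% growth inhibition is given as GI50.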 Active and inactive are the calls of the source. No stated cut-off is given here; in the data, active = GI50 up to about 1.1 µM and inactive = higher.

Assays:
Experiment in all cases: NCI tumour cell line growth inhibition, 48 h
[1] = test system: 786-0
[2] = test system: A498
[3] = test system: A549
[4] = test system: ACHN
[5] = test system: BT-549
[6] = test system: CAKI-1
[7] = test system: COLO 205
[8] = test system: DU-145
[9] = test system: HCC 2998
[10] = test system: HCT-116
[11] = test system: HCT-15
[12] = test system: HL-60
[13] = test system: HOP-62
[14] = test system: HOP-92
[15] = test system: HT-29
[16] = test system: Hs-578T
[17] = test system: IGROV-1
[18] = test system: KM12
[19] = test system: LOX IMVI
[20] = test system: M14
[21] = test system: MCF7
[22] = test system: MDA-MB-231
[23] = test system: MDA-MB-435
[24] = test system: MDA-N
[25] = test system: Malme-3M
[26] = test system: NCI-H226
[27] = test system: NCI-H23
[28] = test system: NCI-H460
[29] = test system: NCI-H522
[30] = test system: NCI/ADR-RES
[31] = test system: OVCAR-3
[32] = test system: OVCAR-4
[33] = test system: OVCAR-5
[34] = test system: OVCAR-8
[35] = test system: PC-3
[36] = test system: RPMI-8226
[37] = test system: RXF 393
[38] = test system: SF-268
[39] = test system: SF-295
[40] = test system: SF-539
[41] = test system: SK-MEL-2
[42] = test system: SK-MEL-5
[43] = test system: SK-OV-3
[44] = test system: SNB-19
[45] = test system: SNB-75
[46] = test system: SW-620
[47] = test system: T47D
[48] = test system: TK-10
[49] = test system: U-251
[50] = test system: UACC-257
[51] = test system: UACC-62
[52] = test system: UO-31
[53] = test system: CCRF-CEM
[54] = test system: EKVX
[55] = test system: K562
[56] = test system: MOLT-4
[57] = test system: SK-MEL-28
[58] = test system: SN12C
[59] = test system: SR

Measured: GI50

COc1cc([C@@H]2c3cc4c(cc3[C@H](OC3OC5COC(c6ccco6)OC5C(O)C3O)C3COC(=O)[C@@H]32)OCO4)cc(OC)c1OC (some centres undefined)
3.2 µM: [11]
inactive: [1] 3.3 µM | [2] 2.29 µM | [3] 3.79 µM | [4] 4.6 µM | [5] 3.21 µM | [6] 5.35 µM | [7] 4.06 µM | [8] 3.15 µM | [9] 4 µM | [10] 3.27 µM | [12] 4.05 µM | [13] 7.89 µM | [14] 9.93 µM | [15] 2.8 µM | [16] 5.01 µM | [17] 3.56 µM | [18] 4.48 µM | [19] 4.06 µM | [20] 4.44 µM | [21] 3.85 µM | [22] 4.43 µM | [23] 3.59 µM | [24] 2.04 µM | [25] 22.3 µM | [26] 4.17 µM | [27] 3.56 µM | [28] 2.16 µM | [29] 8.34 µM | [30] 9.93 µM | [31] 3.21 µM | [32] 41.6 µM | [33] 7.66 µM | [34] 14.2 µM | [35] 3.48 µM | [36] 7.01 µM | [37] 2.82 µM | [38] 8.2 µM | [39] 3.67 µM | [40] 2.74 µM | [41] 9.31 µM | [42] 4.21 µM | [43] > 19.9 µM | [44] 3.9 µM | [45] > 100 µM | [46] 3.5 µM | [47] 13.4 µM | [48] > 100 µM | [49] 3.18 µM | [50] 5.24 µM | [51] 4.73 µM | [52] 25.9 µM

Sc1nnc(NNc2ccccc2)n1Nc1ccccc1
2.1 µM: [11]
inactive: [1] > 71 µM | [2] 39.4 µM | [3] 8.97 µM | [5] 8.69 µM | [6] > 36.9 µM | [53] 8.97 µM | [8] > 79.4 µM | [54] > 87.3 µM | [9] 1.78 µM | [10] 2.31 µM | [13] 64.3 µM | [14] 25.3 µM | [15] 4.76 µM | [16] > 64.3 µM | [17] 19.8 µM | [18] 26.1 µM | [20] 2.02 µM | [22] 44.8 µM | [24] 2.05 µM | [26] 22.6 µM | [27] 28.2 µM | [29] 42.5 µM | [30] 34.3 µM | [31] > 41.7 µM | [33] > 55.2 µM | [34] 21.2 µM | [35] 44.8 µM | [36] 2.51 µM | [37] 1.78 µM | [38] > 82.4 µM | [40] > 42.5 µM | [57] > 100 µM | [43] > 100 µM | [58] > 95.9 µM | [44] > 75.9 µM | [45] > 44.7 µM | [46] 28.7 µM | [48] > 52.6 µM | [49] 21.1 µM
active: [4] 0.824 µM | [7] 0.109 µM | [12] 0.04 µM | [55] 0.0213 µM | [21] 0.508 µM | [23] 0.321 µM | [56] 0.625 µM | [28] 0.146 µM | [32] 0.236 µM | [39] < 0.01 µM | [42] 0.488 µM | [47] 0.528 µM | [50] 0.283 µM | [51] 0.0427 µM

CC(=O)OC1CC2(C)C(=CC1C1SCCS1)CCC1C2CCC2(C)C(OC(C)=O)CCC12 (centres undefined)
> 100 µM: [11]
inactive: [1] > 100 µM | [2] 70 µM | [3] > 100 µM | [4] > 100 µM | [5] > 100 µM | [6] > 100 µM | [53] > 100 µM | [7] > 100 µM | [8] > 100 µM | [54] > 100 µM | [10] > 100 µM | [12] > 100 µM | [13] 97.5 µM | [14] 66.4 µM | [15] > 100 µM | [16] 14.6 µM | [17] > 100 µM | [55] > 100 µM | [18] > 100 µM | [19] > 100 µM | [20] > 100 µM | [21] 68.4 µM | [22] 34.9 µM | [23] > 100 µM | [24] > 100 µM | [56] > 100 µM | [25] > 100 µM | [26] > 100 µM | [27] > 100 µM | [28] > 100 µM | [29] 37 µM | [30] > 100 µM | [31] > 100 µM | [32] > 100 µM | [33] > 100 µM | [34] > 100 µM | [35] > 100 µM | [36] > 100 µM | [37] 19.3 µM | [38] 26.5 µM | [39] 23.4 µM | [40] 53.1 µM | [57] > 100 µM | [41] 45.4 µM | [42] > 100 µM | [43] 27.9 µM | [58] > 100 µM | [44] 37.1 µM | [45] 13.2 µM | [59] > 100 µM | [46] > 100 µM | [47] > 100 µM | [48] 64.1 µM | [49] 32.3 µM | [50] > 100 µM | [51] > 100 µM | [52] > 100 µM

CC(c1ccccc1)n1cncc1C(=O)NN1CCN(C)CC1 (centres undefined)
inactive: [1] > 10 µM | [2] > 10 µM | [3] > 10 µM | [4] > 10 µM | [5] > 10 µM | [6] > 10 µM | [53] > 10 µM | [7] > 10 µM | [8] > 10 µM | [54] > 10 µM | [10] > 10 µM | [12] > 10 µM | [13] > 10 µM | [15] > 10 µM | [16] > 10 µM | [17] > 10 µM | [55] > 10 µM | [18] > 10 µM | [19] > 10 µM | [20] > 10 µM | [21] > 10 µM | [22] > 10 µM | [23] > 10 µM | [24] > 10 µM | [56] > 10 µM | [25] > 10 µM | [26] 3.81 µM | [27] > 10 µM | [28] > 10 µM | [29] > 10 µM | [30] > 10 µM | [31] > 10 µM | [32] > 10 µM | [33] > 10 µM | [34] > 10 µM | [35] > 10 µM | [36] > 10 µM | [37] > 10 µM | [38] > 10 µM | [39] > 10 µM | [40] > 10 µM | [57] > 10 µM | [41] > 10 µM | [42] > 10 µM | [43] > 10 µM | [58] > 10 µM | [44] > 10 µM | [59] > 10 µM | [46] > 10 µM | [47] > 10 µM | [48] > 10 µM | [49] > 10 µM | [50] > 10 µM | [51] > 10 µM
> 10 µM: [11]
